Test results reported in PubChem BioAssay AID179 (DTP/NCI, 2004).
Several values for one entry are separate records, joined by “and”; a condition that tells them apart may be missing. Equal entries are not always repeated. Activity calls are given as the source filed them.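 How the source made its calls: active means compounds giving half or more protection of infected cells from virus-caused growth loss, again on retest; inactive means the rest.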 *1 amine or outer side, *2 acyl side, *3 side chain or, on linkers, in order; H or OH if unused. Where a SMILES comes first, the peptide text is derived from it. [ ]: non-standard residue; d: D form. The star is where a group is joined. ξ: configuration not given here. X15 = O=C([C@H]1CCC[C@H]1N[*:1])[*:2]; ξW = NC(Cc1c[nH]c2ccccc12)C(=O)O; NMeF = CN[CH](Cc1ccccc1)C(=O)O; NMeV = CN[CH](C(=O)O)C(C)C; ξF = NC(Cc1ccccc1)C(=O)O; Boc = CC(C)(C)OC(=O)*; ξK = NCCCCC(N)C(=O)O; ξT = CC(O)C(N)C(=O)O; OBn = c1ccc(CO*)cc1; tBu = CC(C)(C)*

Tested on: CEM cells HIV-1 protection, formazan growth assay
Test: NCI AIDS Antiviral Assay
Conditions: for IC50: measured here: growth of uninfected CEM cells
In short: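 Screen of anti-HIV-1 activity in human CEM cells using a formazan-based growth measurement at five drug concentrations. Hits with 50% or greater protection were repeated, and confirmation required reproducible complete protection.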

CNc1nncc2[nH]cnc12
EC50: > 200 µM | IC50: > 200 µM

COC(=O)C(Cc1nc2ccc(Cl)cc2[nH]c1=O)/C(=N/NC(N)=O)C(=O)Nc1ccc(Cl)cc1 (stereo unspecified)
EC50: > 70.8 µM | IC50: > 70.8 µM

Cc1cscc(C)c1=S
EC50: > 195 µM | IC50: > 195 µM

CC1=Cc2cc3[n-]c(cc4nc(cc5[n-]c(cc1n2)cc5C)C(C)=C4CCC(=O)O)c(CCC(=O)O)c3C.[Pd+2]
EC50: > 11.7 µM | IC50: 1.02 µM

CSc1cc(-c2ccccn2)nc(-c2ccccn2)c1.CSc1cc(-c2ccccn2)nc(-c2ccccn2)c1.[Cu+2].[O-][Cl+3]([O-])([O-])[O-]
EC50: > 200 µM | IC50: 0.0631 µM

COc1c2occc2c([N+](=O)[O-])c2ccc(=O)oc12
EC50: > 30.9 µM | IC50: 26.3 µM

O=Nc1c2cc3ccccc3[nH]c-2c2ccccc12
EC50: > 40.7 µM | IC50: 20.4 µM

CCCCCCCCCCCCS(=O)(=O)O
outcome: inactive

CCOC(=O)c1c(N)n(-c2ccccc2)c(=O)n(-c2ccccc2)c1=O
EC50: > 708 µM | IC50: 372 µM

O=C(N/C(=C\c1ccc(Br)cc1)c1nc2ccccc2s1)c1ccccc1
EC50: > 22.9 µM | IC50: > 22.9 µM

OCCN1CCOC(O)(c2cccc(C(F)(F)F)c2)C1 (stereo unspecified)
EC50: > 200 µM | IC50: 115 µM

O=C(Nc1ccccc1)c1cc(C(=O)Nc2ccccc2)[nH]n1
outcome: inactive

C/C(=N\NC(N)=S)c1ccc(Oc2ccccc2)cc1
outcome: inactive

COC(=O)CC12CC(CC(=O)O1)N(C(=O)Nc1ccccc1)O2 (stereo unspecified)
EC50: > 77.6 µM | IC50: > 77.6 µM

O=C1OCCN1c1ccccc1
EC50: > 1100 µM | IC50: > 1100 µM

COn1oc(=O)c2ccccc21
EC50: > 200 µM | IC50: > 200 µM

CCCCCCCCCCCCCCCCCCCCC(C(=O)OCC)S(=O)(=O)O (stereo unspecified)
EC50: > 100 µM | IC50: 19.5 µM

O=C1c2ccccc2C(=O)N1N1C(=O)c2ccccc2C1=O
EC50: > 200 µM | IC50: > 200 µM

C1C2CC3C1C1CN3C21 (stereo unspecified)
EC50: > 724 µM | IC50: > 724 µM

COc1ccc(/C=C(\C(C)=O)C(=O)Nc2ccccc2)cc1
EC50: > 17.8 µM | IC50: > 17.8 µM

Cc1occc1C(=S)Nc1ccc(Cl)c(/C=N/OC(C)(C)C)c1
EC50: 0.195 µM | IC50: 14.8 µM

CCCN=c1ssc(=O)n1CCC
EC50: > 200 µM | IC50: 11.2 µM

CCOC(=O)NC(C(F)(F)F)(C(F)(F)F)P(=O)(OC(C)C)OC(C)C
EC50: > 200 µM | IC50: > 200 µM

COc1ccc2[nH]c3c(c2c1)CC(=S)N1CCCC(CC3=O)C1 (stereo unspecified)
EC50: > 200 µM | IC50: 61.7 µM

Cc1cccc(NC(=O)C(=O)C2C(=O)NC(=O)NC2=O)c1C
EC50: > 832 µM | IC50: 794 µM

COc1ccc(OC)c(NCC(=O)Nn2cnc3ccc(S(=O)(=O)Nc4cc(OC)ccc4OC)cc3c2=O)c1
EC50: > 200 µM | IC50: 33.9 µM

CC(=O)[O-].[O-]c1c(Cl)cc(Cl)cc1/C=N/Nc1ccccn1.[Zn+2]
outcome: inactive

Nc1ncnc2c1ncn2CC1OCC(CO)O1 (stereo unspecified)
EC50: > 3090 µM | IC50: 2750 µM and 2340 µM

CC(C)(CC(O)C#N)/[N+]([O-])=[N+](\[O-])C(C)(C)CC(O)C#N (stereo unspecified)
outcome: inactive

COc1ccc(N=C2SCC(=O)N2NC(=O)CN2C(=O)c3ccccc3C2=O)cc1
EC50: > 20.4 µM | IC50: 17.4 µM

O=c1c(-c2ccccc2)c2n(c3ccccc13)CCN2
EC50: > 200 µM | IC50: > 200 µM

CC(=O)C1=C(N=[N+]=[N-])c2cccc3cccc(c23)C1=O
outcome: inactive

CC(=O)Nc1cc2nc3n(c2cc1C)CCC3OC(C)=O (stereo unspecified)
EC50: > 200 µM | IC50: > 200 µM

CC(C)(C)c1cc(C(=O)/C=C/c2ccccc2)cc(C(C)(C)C)c1O
EC50: > 21.4 µM | IC50: > 21.4 µM

CC(=O)N(C(C)=O)C1=C2c3ccccc3N(S(=O)(=O)c3ccccc3)C2n2c(=O)n(-c3ccccc3)c(=O)n2C1 (stereo unspecified)
EC50: > 9.33 µM | IC50: > 9.33 µM

OC1CSCCSCCCSCCSC1
EC50: > 126 µM | IC50: > 126 µM

Nc1ncnc2c1ncn2C(=O)NC12CC3CC(CC(C3)C1)C2
EC50: > 100 µM | IC50: > 100 µM

COc1cc(NC=O)c(OC)cc1Cl
outcome: inactive

Cc1c(C)c2c(c(N)c1C#N)C(=O)N(CCc1ccccc1)C2=O
EC50: > 200 µM | IC50: 170 µM

NC(=O)NN/C=C(/C=Nc1ccccc1)[N+](=O)[O-]
EC50: > 105 µM | IC50: > 105 µM

c1ccc(CN2COc3c(ccc4c5c(ccc34)CN(Cc3ccccc3)CO5)C2)cc1
EC50: > 2.45 µM | IC50: > 2.45 µM

CCCC[N+](CCCC)=c1cc(-c2ccc(Cl)cc2)ss1
EC50: > 20 µM | IC50: 0.708 µM

Cn1c(=O)cc(O)c2ccccc21
EC50: > 200 µM | IC50: > 200 µM

O=C1C2CC=CCC2C(=O)N1n1c(Cc2ccccc2)n[nH]c1=O (stereo unspecified)
EC50: > 200 µM | IC50: > 200 µM

[O-][N+]1=C(c2ccccc2)COc2ccccc21
EC50: > 115 µM | IC50: > 115 µM

CCOP(=O)(OCC)C1CC(C)OC1=O (stereo unspecified)
outcome: inactive

COc1ccc2c(c1)CCC(OS(=O)(=O)CC13CCC(CC1=O)C3(C)C)C2=O (stereo unspecified)
EC50: > 200 µM | IC50: 10.5 µM

CC1CC[Si](C)(C)CC12C(=O)NC(=O)NC2=O (stereo unspecified)
EC50: > 200 µM | IC50: > 200 µM

CCCCNS(=O)(=O)c1ccc(-c2ccc3c(c2)-c2ccc(S(=O)(=O)NCCCC)cc2S3(=O)=O)cc1
EC50: > 12.9 µM | IC50: > 12.9 µM

Cc1cc(O)c2c(c1)C(O)(c1ccc3c(c1O)C(=O)c1c(O)cc(C)cc1C3(O)C1OC(CO)C(O)C(O)C1O)c1cccc(O)c1C2=O (stereo unspecified)
outcome: inactive

COc1cccc2c1C(=O)c1c(O)c3c(c(O)c1C2=O)C[C@@](O)(C(=O)CO)C[C@@H]3OC1CC(N(C)C)C(O)C(C)O1 (stereo partly specified)
EC50: > 0.2 µM | IC50: 0.0631 µM

CCCCCCCC(=O)[O-].CCCCCCCC(=O)[O-].N.N.N.N.[Co+3].[O-][Cl+3]([O-])([O-])[O-]
outcome: inactive

c1ccc(C2NC(c3ccccc3)N3C(c4ccccc4)N23)cc1 (stereo unspecified)
EC50: > 16.6 µM | IC50: > 16.6 µM

COC(=O)NC1(NC(=O)OC)NC(=O)c2cc(OC)c(OC)c(OC)c2N1
EC50: > 200 µM | IC50: 10 µM

COC1CC(OC2C(C)OC(OC3C(C)OC(OC4C(C)OC(O[C@H]5CC[C@@]6(C)C(=CC[C@]7(O)[C@@H]6C[C@@H](OC(=O)/C=C/c6ccccc6)[C@@]6(C)[C@]7(O)CC[C@@]6(O)C(C)=O)C5)CC4OC)CC3OC)CC2OC)OC(C)C1O (stereo partly specified)
EC50: > 200 µM | IC50: 21.9 µM

O=C1C(=O)C(CCCO)(CCCO)CCCCCCCCC1(CCCO)CCCO
EC50: > 200 µM | IC50: 102 µM

COC(=O)CC(=O)OSc1ccccc1
EC50: > 251 µM | IC50: 18.2 µM

CN(C)CCNc1ccc2c(=O)n(CCN(C)C)c(=O)n3c4ccc(N)cc4c(=O)c1c23
EC50: > 200 µM | IC50: 0.0631 µM

CC1=CC2OC3CC4OC(=O)/C=C/C=C/C(C(C)O)OCC(O)C(C)CC(=O)OCC2(CC1O)C4(C)C31CO1 (stereo unspecified)
EC50: > 0.2 µM | IC50: 0.0631 µM

N#CC(NC12CC3CC(CC(C3)C1)C2)c1ccccc1 (stereo unspecified)
outcome: inactive

COc1ccccc1/C=C1/NC(=S)NC1=O
EC50: > 200 µM | IC50: > 200 µM

C=C(C)C(OC(C)=O)C(OCC)c1c(OC)ccc2ccc(=O)oc12 (stereo unspecified)
EC50: > 50.1 µM | IC50: > 50.1 µM

CC(C)C(NC(=O)OC(C)(C)C)C(=O)N(C)C(Cc1ccccc1)C(=O)N(C)C(C(=O)OCc1ccccc1)C(C)C (stereo not drawn) (Boc-Val-[NMeF]-[NMeV]-OBn; configuration not given here)
EC50: > 200 µM | IC50: 81.3 µM and 110 µM

C=C1CC2(CCOc3ccc(Cl)cc32)OC1=O (stereo unspecified)
EC50: > 372 µM | IC50: 0.977 µM

CC(OC(C)(C)C)C1NC(=O)C(CCCCNC(=O)OC(C)(C)C)NC(=O)C(Cc2c[nH]c3ccccc23)NC(=O)C(Cc2ccccc2)NC(=O)[C@H]2CCC[C@H]2NC(=O)C(Cc2ccccc2)NC1=O (stereo partly specified) (cyclo([X15][ξF][ξW][ξK](Boc)[ξT](tBu)[ξF]))
outcome: inactive

COc1ccccc1/C=C1\Sc2scc(-c3ccc(O)c(O)c3)[n+]2C1=O
EC50: > 200 µM | IC50: 3.89 µM

Nc1nc(=S)c2[nH]cnc2[nH]1
EC50: > 60.3 µM | IC50: 0.955 µM

CCOC(=O)c1oc2cc3c(c4c2c1-c1ccccc1N4C)C=CC(C)(C)O3
EC50: > 200 µM | IC50: 120 µM

N#CCCC1(CCC#N)CCCCCCCCC(CCC#N)(CCC#N)C(O)C1O (stereo unspecified)
EC50: > 200 µM | IC50: > 200 µM

O=[As]c1ccc(C(=O)O)cc1 (stereo unspecified)
EC50: > 1170 µM | IC50: 245 µM

O=C(Nc1ccc(/C=C\c2ccc(NC(=O)c3cc(S(=O)(=O)O)c4cccnc4c3O)cc2S(=O)(=O)O)c(S(=O)(=O)O)c1)c1cc(S(=O)(=O)O)c2cccnc2c1O
EC50: > 100 µM | IC50: > 100 µM

NCCCCCC(=O)O
EC50: > 200 µM | IC50: > 200 µM

CC(C)=CCN1Cc2cccc3[nH]c(=S)n(c23)C[C@@H]1C
EC50: 0.0302 µM | IC50: 1.74 µM

CC(C)(C)/C(O)=C\c1nc2cc(F)c(F)cc2[nH]c1=O
EC50: > 200 µM | IC50: 182 µM

CCOC(=O)CCCNC(=O)c1ccccc1SC(=O)CCCC[n+]1ccccc1
EC50: > 2 µM | IC50: 0.912 µM

C[C@H](O)C(=O)SC[C@H](NC(=O)CC[C@@H](N)C(=O)O)C(=O)NCC(=O)O
EC50: > 200 µM | IC50: > 200 µM

CC(C)(CN1CCCCC1)C(=O)/C=C/c1ccc(Cl)cc1
EC50: > 36.3 µM | IC50: 7.94 µM

CCOC(=O)N1CCC2(CC1)C[C@@](C(C)=O)(c1ccccc1)C(C)O2 (stereo partly specified)
EC50: > 200 µM | IC50: > 200 µM

CC(=O)OC1C=CC(SC23CC4CC(CC(C4)C2)C3)N(C(C)=O)C1SC12CC3CC(CC(C3)C1)C2 (stereo unspecified)
EC50: > 200 µM | IC50: > 200 µM

COc1ccc(C2C(N)=NCC2c2ccccn2)cc1 (stereo unspecified)
outcome: inactive

CCO[C@H]1N(C2CC(N=[N+]=[N-])C(CO)O2)C(=O)NC(=O)[C@]1(C)Cl (stereo partly specified)
EC50: > 200 µM | IC50: > 200 µM

O=C(c1ccccc1)c1nc2ccc(Cl)cc2cc1C(Br)Br
EC50: > 3.31 µM | IC50: > 3.31 µM

Brc1nc2c3ccccc3ncn2c1Br
EC50: > 30.2 µM | IC50: 14.8 µM

CCOC(F)(F)/C=C/c1ccccc1
outcome: inactive

CC1(C)CC(=O)C2=C(C1)NC(SSC1=C(C#N)C(c3ccccc3)C3=C(CC(C)(C)CC3=O)N1)=C(C#N)C2c1ccccc1 (stereo unspecified)
EC50: > 112 µM | IC50: 15.5 µM
